Assay results: PMC6934184, “Selective DNA-PKcs inhibition extends the therapeutic index of localized radiotherapy and chemotherapy” (The Journal of Clinical Investigation, 2019)

Biological target: T1, EGFR (ErbB1) L861Q (Homo sapiens, UniProt P00533, L861Q)
T1 construct: purchased Thermo Fisher Scientific (Life Technologies) SelectScreen
Test: SelectScreen Z'LYTE
Type: biochemical
Summary of the method: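 Compound tested in SelectScreen activity assays, Z'LYTE for CSF1R, CDK1/cyclin B and MAP2K6 and Adapta for CAMK1. ATP for CAMK1 was listed as 10, and Km app was used for CSF1R. Results are expressed in percent.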

T1 sequence (P00533 25-1210 L861Q): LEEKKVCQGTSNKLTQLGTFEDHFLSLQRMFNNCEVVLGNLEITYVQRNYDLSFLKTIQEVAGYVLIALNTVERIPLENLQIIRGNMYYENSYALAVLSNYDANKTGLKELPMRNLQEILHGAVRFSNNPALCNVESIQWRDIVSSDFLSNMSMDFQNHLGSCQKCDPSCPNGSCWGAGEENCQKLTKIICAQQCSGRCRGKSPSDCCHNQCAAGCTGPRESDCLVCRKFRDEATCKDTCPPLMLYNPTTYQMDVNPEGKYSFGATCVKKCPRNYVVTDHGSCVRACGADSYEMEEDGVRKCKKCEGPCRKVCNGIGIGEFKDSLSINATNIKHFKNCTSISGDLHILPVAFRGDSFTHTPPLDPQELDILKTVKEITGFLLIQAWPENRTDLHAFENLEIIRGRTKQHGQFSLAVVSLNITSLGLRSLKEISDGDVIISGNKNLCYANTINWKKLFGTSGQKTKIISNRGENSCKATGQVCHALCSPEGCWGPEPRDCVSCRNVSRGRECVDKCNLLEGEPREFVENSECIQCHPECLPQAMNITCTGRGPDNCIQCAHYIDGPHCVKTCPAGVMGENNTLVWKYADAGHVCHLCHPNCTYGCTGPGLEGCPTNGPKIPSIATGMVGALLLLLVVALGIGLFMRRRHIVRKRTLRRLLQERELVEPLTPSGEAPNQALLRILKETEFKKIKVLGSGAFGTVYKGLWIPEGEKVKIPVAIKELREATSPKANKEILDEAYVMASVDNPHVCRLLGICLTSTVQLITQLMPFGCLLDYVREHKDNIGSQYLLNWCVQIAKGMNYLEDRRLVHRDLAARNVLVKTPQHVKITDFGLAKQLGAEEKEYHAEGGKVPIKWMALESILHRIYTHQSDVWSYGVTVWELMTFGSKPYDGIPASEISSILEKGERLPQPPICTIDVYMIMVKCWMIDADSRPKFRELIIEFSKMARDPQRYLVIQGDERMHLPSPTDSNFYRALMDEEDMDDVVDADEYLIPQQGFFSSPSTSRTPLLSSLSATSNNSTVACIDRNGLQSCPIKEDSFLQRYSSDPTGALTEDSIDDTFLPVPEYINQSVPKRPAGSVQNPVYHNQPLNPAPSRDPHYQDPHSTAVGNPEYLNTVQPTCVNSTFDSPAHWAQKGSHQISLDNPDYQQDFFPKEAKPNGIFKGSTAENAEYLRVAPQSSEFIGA

CN(C(=O)CN1CCOCC1)c1ccc2sc3c(-c4cccc5c(=O)cc(N6CC7CCC(C6)O7)oc45)cccc3c2c1 [NU5455]
inhibition at 1 µM: 2.2%
